Data published in a compilation of properties of binary mixtures.

Experiment: xn = mol fraction of the nth substance listed
Conditions: 101 kPa

CCCC[n+]1ccc(C)cc1.F[B-](F)(F)F + CO
viscosity [mPa·s]
Conditions	298.15 K	313.15 K	323.15 K
x1 = 0.0151	0.621	0.507	–
x2 = 0	–	81	50.2
x2 = 0.4287	–	–	9.2
x2 = 0.5246	–	7.58	5.92
x2 = 0.5678	9.3	6.31	4.95
x2 = 0.718	4.19	–	2.5
x2 = 0.8313	2.02	1.54	–
x2 = 0.8803	1.46	–	–
x2 = 0.9154	1.11	0.877	0.763
x2 = 0.9452	0.868	0.696	0.611
x2 = 0.9671	–	0.586	0.519
x2 = 0.9775	0.669	0.544	0.476

CO + CCCC[n+]1ccc(C)cc1.F[B-](F)(F)F
x1 = 1
Conditions	viscosity [mPa·s]
313.15 K	0.436
323.15 K	0.383
